The source of these data is ChEMBL document CHEMBL3259638, “Preliminary investigations into triazole derived androgen receptor antagonists” (Bioorg Med Chem, 2014).

pIC50: −log10 of the molar value.

One data set deals with PC-3. Kind of data set: Cytotoxicity against human PC3 cells assessed growth inhibition. In kind it is functional, cell-based.
The next data set deals with LNCaP. Put plainly: Cytotoxicity against human LNCAP cells. The format is cell-based.

As a reminder, the pIC50 is the negative decadic logarithm of the IC50, by convention in mol/L. A low value points to a high IC50. In the case of `CC(C)(O)c1cn(-c2ccc(Cl)c(C(F)(F)F)c2)nn1`, the pIC50 in the data set with PC-3 was 4.16.

As for `CC(C)(O)c1cn(-c2ccc(C#N)c(C(F)(F)F)c2)nn1`, in the data set on LNCaP, the Activity entry is on record as “Toxic”.

For `CC(C)(O)c1cn(-c2ccc([N+](=O)[O-])c(C(F)(F)F)c2)nn1`, the pIC50 in the data set on PC-3 was 4.20.

In the case of `CC(C)(O)c1cn(-c2cc(C(F)(F)F)cc(C(F)(F)F)c2)nn1`, the pIC50 in the data set on PC-3 was 4.38.
